The data set has as its system CCRIS mutagenicity, Ames/micronucleus/aberration tests. Put plainly: CCRIS mutagenicity studies.
Setting [1] is: Test System: AMES SALMONELLA TYPHIMURIUM, Strain/Indicator: TA97, Metabolic Activation: NONE, Method: STANDARD PLATE.
[2] abbreviates: Test System: AMES SALMONELLA TYPHIMURIUM, Strain/Indicator: TA98, Metabolic Activation: NONE, Method: STANDARD PLATE.
The mark [3] stands for this setting: Test System: AMES SALMONELLA TYPHIMURIUM, Strain/Indicator: TA100, Metabolic Activation: NONE, Method: STANDARD PLATE.
[4] abbreviates: Test System: AMES SALMONELLA TYPHIMURIUM, Strain/Indicator: TA98, Metabolic Activation: RAT, LIVER, S-9, AROCLOR 1254, Method: STANDARD PLATE.

Structures are written as SMILES. Calls of active or inactive are those of the source. How the calls were made is not given here.

Regarding `Cc1ccc(N=NN(C)C)cc1`, the mutagenic call (Test System: AMES SALMONELLA TYPHIMURIUM, Strain/Indicator: TA92, Metabolic Activation: MOUSE, LIVER, S-9, POLYCHLORINATED BIPHENYLS, Method: PREINCUBATION) is “inactive; negative”; the mutagenic call (Test System: AMES SALMONELLA TYPHIMURIUM, Strain/Indicator: TA92, Metabolic Activation: MOUSE, LIVER, S-9, POLYCHLORINATED BIPHENYLS, Method: STANDARD PLATE) was “inactive; negative”; the mutagenic call (Test System: AMES SALMONELLA TYPHIMURIUM, Strain/Indicator: TA92, Metabolic Activation: NONE, Method: STANDARD PLATE) was “inactive; negative”; the mutagenic call (Test System: AMES SALMONELLA TYPHIMURIUM, Strain/Indicator: TA97, Metabolic Activation: MOUSE, LIVER, S-9, POLYCHLORINATED BIPHENYLS, Method: PREINCUBATION) was “inactive; negative”; the mutagenic call (Test System: AMES SALMONELLA TYPHIMURIUM, Strain/Indicator: TA97, Metabolic Activation: MOUSE, LIVER, S-9, POLYCHLORINATED BIPHENYLS, Method: STANDARD PLATE) is “inactive; negative”; the mutagenic call under setting [1] was “active; positive”. In addition, the mutagenic call was “inactive; negative” (Test System: AMES SALMONELLA TYPHIMURIUM, Strain/Indicator: TA98, Metabolic Activation: MOUSE, LIVER, S-9, POLYCHLORINATED BIPHENYLS, Method: PREINCUBATION); “active; positive” (Test System: AMES SALMONELLA TYPHIMURIUM, Strain/Indicator: TA98, Metabolic Activation: MOUSE, LIVER, S-9, POLYCHLORINATED BIPHENYLS, Method: STANDARD PLATE); “active; positive” under setting [2]; “inactive; negative” (Test System: AMES SALMONELLA TYPHIMURIUM, Strain/Indicator: TA100, Metabolic Activation: MOUSE, LIVER, S-9, POLYCHLORINATED BIPHENYLS, Method: PREINCUBATION); “inactive; negative” (Test System: AMES SALMONELLA TYPHIMURIUM, Strain/Indicator: TA100, Metabolic Activation: MOUSE, LIVER, S-9, POLYCHLORINATED BIPHENYLS, Method: STANDARD PLATE); “inactive; negative” under setting [3]. The mutagenic call (Test System: AMES SALMONELLA TYPHIMURIUM, Strain/Indicator: TA1535, Metabolic Activation: MOUSE, LIVER, S-9, POLYCHLORINATED BIPHENYLS, Method: PREINCUBATION) was “inactive; negative”; the mutagenic call (Test System: AMES SALMONELLA TYPHIMURIUM, Strain/Indicator: TA1535, Metabolic Activation: MOUSE, LIVER, S-9, POLYCHLORINATED BIPHENYLS, Method: STANDARD PLATE) was “inactive; negative”; the mutagenic call (Test System: AMES SALMONELLA TYPHIMURIUM, Strain/Indicator: TA1535, Metabolic Activation: NONE, Method: STANDARD PLATE) is “inactive; negative”; the mutagenic call (Test System: AMES SALMONELLA TYPHIMURIUM, Strain/Indicator: TA1537, Metabolic Activation: MOUSE, LIVER, S-9, POLYCHLORINATED BIPHENYLS, Method: PREINCUBATION) is “active; positive”; the mutagenic call (Test System: AMES SALMONELLA TYPHIMURIUM, Strain/Indicator: TA1537, Metabolic Activation: MOUSE, LIVER, S-9, POLYCHLORINATED BIPHENYLS, Method: STANDARD PLATE) was “active; positive”; the mutagenic call (Test System: AMES SALMONELLA TYPHIMURIUM, Strain/Indicator: TA1537, Metabolic Activation: NONE, Method: STANDARD PLATE) was “active; positive”. Besides, the mutagenic call (Test System: AMES SALMONELLA TYPHIMURIUM, Strain/Indicator: TA1538, Metabolic Activation: MOUSE, LIVER, S-9, POLYCHLORINATED BIPHENYLS, Method: PREINCUBATION) is “active; positive”; the mutagenic call (Test System: AMES SALMONELLA TYPHIMURIUM, Strain/Indicator: TA1538, Metabolic Activation: MOUSE, LIVER, S-9, POLYCHLORINATED BIPHENYLS, Method: STANDARD PLATE) is “active; positive”; the mutagenic call (Test System: AMES SALMONELLA TYPHIMURIUM, Strain/Indicator: TA1538, Metabolic Activation: NONE, Method: STANDARD PLATE) is “active; positive”.

For `CC(C)C[C@@H]1NC(=O)[C@H](C)N(C)C(=O)CNC(=O)/C(=C/c2ccccc2)N(C)C1=O`, the mutagenic call runs as follows: under setting [2], “inactive; negative”; (Test System: AMES SALMONELLA TYPHIMURIUM, Strain/Indicator: TA98, Metabolic Activation: RAT LIVER S-9, AROCLOR 1254, Method: STANDARD PLATE) “inactive; negative”; under setting [3], “inactive; negative”; (Test System: AMES SALMONELLA TYPHIMURIUM, Strain/Indicator: TA100, Metabolic Activation: RAT LIVER S-9, AROCLOR 1254, Method: STANDARD PLATE) “inactive; negative”; (Test System: Ames Salmonella typhimurium, Strain/Indicator: TA97, Metabolic Activation: None, Method: Standard plate) “inactive; negative. nitrosation did not increase mutagenicity”; (Test System: Ames Salmonella typhimurium, Strain/Indicator: TA97, Metabolic Activation: Rat, Liver, S-9, Aroclor 1254 (10%), Method: Standard plate) “inactive; negative. nitrosation did not increase mutagenicity”. The mutagenic call (Test System: Ames Salmonella typhimurium, Strain/Indicator: TA102, Metabolic Activation: None, Method: Standard plate) was “inactive; negative. nitrosation did not increase mutagenicity”; the mutagenic call (Test System: Ames Salmonella typhimurium, Strain/Indicator: TA102, Metabolic Activation: Rat, Liver, S-9, Aroclor 1254 (10%), Method: Standard plate) is “inactive; negative. nitrosation did not increase mutagenicity”; the mutagenic call (Test System: Ames Salmonella typhimurium, Strain/Indicator: TA104, Metabolic Activation: None, Method: Standard plate) is “inactive; negative. nitrosation did not increase mutagenicity”; the mutagenic call (Test System: Ames Salmonella typhimurium, Strain/Indicator: TA104, Metabolic Activation: Rat, Liver, S-9, Aroclor 1254 (10%), Method: Standard plate) was “inactive; negative. nitrosation did not increase mutagenicity”.

Take `CCC(C)COC(=O)/C=C/c1ccc(N=Cc2ccc(OC)cc2)cc1` (stereo not drawn): the mutagenic call is “inactive; negative” (Test System: AMES SALMONELLA TYPHIMURIUM, Strain/Indicator: TA98, Metabolic Activation: HAMSTER, LIVER, S-9, AROCLOR 1254 (30%), Method: PREINCUBATION); “inactive; negative” (Test System: AMES SALMONELLA TYPHIMURIUM, Strain/Indicator: TA98, Metabolic Activation: NONE, Method: PREINCUBATION); “active; positive” (Test System: AMES SALMONELLA TYPHIMURIUM, Strain/Indicator: TA98, Metabolic Activation: RAT, LIVER, S-9, AROCLOR 1254 (30%), Method: PREINCUBATION); “active; positive” (Test System: AMES SALMONELLA TYPHIMURIUM, Strain/Indicator: TA100, Metabolic Activation: HAMSTER, LIVER, S-9, AROCLOR 1254 (30%), Method: PREINCUBATION); “inactive; negative” (Test System: AMES SALMONELLA TYPHIMURIUM, Strain/Indicator: TA100, Metabolic Activation: NONE, Method: PREINCUBATION); “active; positive” (Test System: AMES SALMONELLA TYPHIMURIUM, Strain/Indicator: TA100, Metabolic Activation: RAT, LIVER, S-9, AROCLOR 1254 (30%), Method: PREINCUBATION).

Regarding `O=C(N/N=C/c1ccc([N+](=O)[O-])o1)c1ccc(O)cc1`, the mutagenic call was “active; positive” (Test System: AMES SALMONELLA TYPHIMURIUM, Strain/Indicator: TA100(FR1), Metabolic Activation: NONE, Method: STANDARD PLATE); “active; positive” (Test System: AMES SALMONELLA TYPHIMURIUM, Strain/Indicator: TA100(FR1), Metabolic Activation: RAT, LIVER, S-9, PHENOBARBITAL AND 3-METHYLCHOLANTHRENE, Method: STANDARD PLATE); “active; positive” under setting [3]; “active; positive” (Test System: AMES SALMONELLA TYPHIMURIUM, Strain/Indicator: TA100, Metabolic Activation: RAT, LIVER, S-9, PHENOBARBITAL AND 3-METHYLCHOLANTHRENE, Method: STANDARD PLATE); “inactive; negative” (Test System: CHINESE HAMSTER V-79, Strain/Indicator: V-79/6-THIOGUANINE, Metabolic Activation: NONE); “inactive; negative” (Test System: CHINESE HAMSTER V-79, Strain/Indicator: V-79/6-THIOGUANINE, Metabolic Activation: RAT, LIVER, HEPATOCYTES). Moreover, the mutagenic call is, setting by setting: (Test System: CHINESE HAMSTER V-79, Strain/Indicator: V-79/OUABAIN, Metabolic Activation: NONE) “inactive; negative”; (Test System: CHINESE HAMSTER V-79, Strain/Indicator: V-79/OUABAIN, Metabolic Activation: RAT, LIVER, HEPATOCYTES) “inactive; negative”.

For the molecule `COc1cc2c(CCNC(C)=O)c[nH]c2cc1O`, the mutagenic call is “inactive; negative” under setting [1]; “inactive; negative” (Test System: AMES SALMONELLA TYPHIMURIUM, Strain/Indicator: TA97, Metabolic Activation: RAT, LIVER, S-9, AROCLOR 1254, Method: STANDARD PLATE); “inactive; negative” under setting [2]; “inactive; negative” under setting [4]; “inactive; negative” under setting [3]; “inactive; negative” (Test System: AMES SALMONELLA TYPHIMURIUM, Strain/Indicator: TA100, Metabolic Activation: RAT, LIVER, S-9, AROCLOR 1254, Method: STANDARD PLATE).

In the case of `Cc1nc2c3c(ccc4ccc(O)cc43)ccc2n1C`, the mutagenic call under setting [4] was “active; positive”.

With `ClCc1ccccc1CCl`, under setting [2], the mutagenic call is “inactive; negative”.

These data come from PubChem BioAssay AID1259407 (Chemical Carcinogenesis Research Information System (CCRIS), 2018).
